Laboratory results taken from patent publication US8604044B2, “Quinazoline based EGFR inhibitors containing a zinc binding moiety” (Curis, Inc., priority 2006, dated 2013).

Tested on: HDAC
Assay: HDAC fluorimetric assay (HDAC enzymatic activity, HeLa nuclear extract)
Type: biochemical
Details: HeLa nuclear extract; read-out: HDAC IC50 grading
Description: HDAC inhibitors were screened using an HDAC fluorimetric assay kit (AK-500, Biomol, Plymouth Meeting, Pa.).
Each assay was setup as follows: Defrosted all kit components and kept on ice until use. […] Prepared dilutions of Trichostatin A (TSA, positive control) and tested compounds in assay buffer (5× of final concentration). Diluted Fluor de Lys™ Substrate in assay buffer to 100 uM (50 fold=2× final). Diluted Fluor de Lys™ developer concentrate 20-fold (e.g. 50 μl plus 950 μl Assay Buffer) in cold assay buffer. Second, diluted the 0.2 mM Trichostatin A 100-fold in the 1× Developer (e.g. 10 μl in 1 ml; final Trichostatin A concentration in the 1× Developer=2 μM; final concentration after addition to HDAC/Substrate reaction=1 μM). Added Assay buffer, diluted trichostatin A or test inhibitor to appropriate wells of the microtiter plate. Added diluted HeLa extract or other HDAC sample to all wells except for negative controls.

| Compound | IC50 |
| --- | --- |
| COc1cc2ncnc(Nc3ccc(F)c(Cl)c3)c2cc1CCCCC(=O)NO [Compound 144, 5-(4-(3-chloro-4-fluorophenylamino)-7-methoxyquinazolin-6-yl)-N-hydroxypentanamide] | 100 to 1000 nM |
| COc1cc2ncnc(Nc3ccc(F)c(Cl)c3)c2cc1OCCC(=O)NO [Compound 2] | > 10000 nM |
| O=C(COc1ccc2ncnc(Nc3ccc(F)c(Cl)c3)c2c1)NO [Compound 13, 2-(4-(3-chloro-4-fluorophenylamino)quinazolin-6-yloxy)-N-hydroxyacetamide] | > 10000 nM |
| COCCOc1cc2ncnc(Nc3ccc(F)c(Cl)c3)c2cc1NC(=O)CCCC(=O)NO [Compound 68, N^1-(4-(3-chloro-4-fluorophenylamino)-7-(2-methoxyethoxy)quinazolin-6-yl)-N^5-hydroxyglutaramide] | 1000 to 10000 nM |
| C#Cc1cccc(CNc2ncnc3cc(OC)c(OCCCCCCC(=O)NO)cc23)c1 [Compound 90, 7-(4-(3-ethynylbenzylamino)-7-methoxyquinazolin-6-yloxy)-N-hydroxyheptanamide] | < 100 nM |
| COc1cc2ncnc(N[C@H](C)c3ccccc3)c2cc1OCCCCCC(=O)NO [Compound 77, (R)—N-hydroxy-6-(7-methoxy-4-(1-phenylethylamino)quinazolin-6-yloxy)-hexanamide] | < 100 nM |
| C#Cc1cccc(Nc2ncnc3cc(OC)c(NC(=O)CCCCC(=O)NO)cc23)c1 [Compound 43, N^1-(4-(3-ethynylphenylamino)-7-methoxyquinazolin-6-yl)-N^6-hydroxyadipamide] | 100 to 1000 nM |
| COc1cc2ncnc(NCc3ccc(F)c(F)c3)c2cc1OCCCCCCC(=O)NO [Compound 87, 7-(4-(3,4-difluorobenzylamino)-7-methoxyquinazolin-6-yloxy)-N-hydroxyheptanamide] | < 100 nM |
| COCCOc1cc2ncnc(Nc3ccc(F)c(Cl)c3)c2cc1NC(=O)CCCCC(=O)NO [Compound 69, N^1-(4-(3-chloro-4-fluorophenylamino)-7-(2-methoxyethoxy)quinazolin-6-yl)-N^6-hydroxyadipamide] | 100 to 1000 nM |

Other lines, results leading:

| IC50 | Compound |
| --- | --- |
| > 10000 nM | Nc1cc(Br)ccc1NC(=O)COc1ccc2ncnc(Nc3ccc(F)c(Cl)c3)c2c1 [Compound 45] |
| 1000 to 10000 nM | COc1cc2ncnc(Nc3ccc(F)c(Cl)c3)c2cc1C#CCCC(=O)NO [Compound 138] |
| 1000 to 10000 nM | COc1cc2ncnc(Nc3ccc(F)c(Cl)c3)c2cc1C#CCCCC(=O)NO [Compound 139, 6-(4-(3-chloro-4-fluorophenylamino)-7-methoxyquinazolin-6-yl)-N-hydroxyhex-5-ynamide] |
| 100 to 1000 nM | COc1cc2ncnc(Nc3ccc(F)c(Cl)c3)c2cc1-c1ccc(C#CCCCC(=O)NO)o1 [Compound 125] |
| 1000 to 10000 nM | COc1cc2ncnc(Nc3ccc(F)c(Cl)c3)c2cc1NC(=O)CCCC(=O)NO [Compound 38, N^1-(4-(3-chloro-4-fluorophenylamino)-7-methoxyquinazolin-6-yl)-N^5-hydroxyglutaramide] |
| < 100 nM | COc1cc2ncnc(NCc3cccc(Br)c3)c2cc1OCCCCCCC(=O)NO [Compound 89, 7-(4-(3-bromobenzylamino)-7-methoxyquinazolin-6-yloxy)-N-hydroxyheptanamide] |
| 100 to 1000 nM | C[C@@H](Nc1ncnc2ccc(OCCCCCC(=O)NO)cc12)c1ccccc1 [Compound 50] |
| < 100 nM | COc1ccc([C@@H](C)Nc2ncnc3cc(OC)c(OCCCCCCC(=O)NO)cc23)cc1 [Compound 83, (R)—N-hydroxy-7-(7-methoxy-4-(1-(4-methoxyphenyl)ethylamino)quinazolin-6-yloxy)-heptanamide] |
| < 100 nM | COc1cc2ncnc(NCCc3ccccc3)c2cc1OCCCCCCC(=O)NO [Compound 84] |
| 1000 to 10000 nM | O=C(CCOc1ccc2ncnc(Nc3ccc(F)c(Cl)c3)c2c1)NO [Compound 14] |
| < 100 nM | C#Cc1cccc(Nc2ncnc3ccc(OCCCCCCC(=O)NO)cc23)c1 [Compound 24, 7-(4-(3-ethynylphenylamino)quinazolin-6-yloxy)-N-hydroxyheptanamide] |
| 1000 to 10000 nM | COc1cc2ncnc(Nc3ccc(F)c(Cl)c3)c2cc1OCCOc1ccc(CC(=O)NO)cc1 [Compound 91] |
